What is called pIC50 is the negative decadic logarithm of the IC50, by convention in mol/L.

The target in experiment [1] is T1, FAK (Homo sapiens, UniProt Q05397). In words: biochemical.
In experiment [2] the target is T1, FAK. In words: Cell-based capture ELISA for inhibition of FAK autophosphorylation [pY397] in MiaPaCa2 cells. Conditions: MIA-PaCa2 cells, + 50% mouse plasma (Table 3); read-out: Mean FAK Cell Mechanistic IC50 + 50% mP MIA-PaCa2. The protocol: Cell-Based Assays for Inhibition of FAK Autophosphorylation: MiaPaCa2 and U87MG
ELISA kit from Invitrogen (KHO0441).
Reagents Provided in Biosource FAK [pY397]
The cells were then suspended in cell assay medium.

Structures are written as SMILES. pIC50: −log10 of the molar value.

T1 sequence (Q05397 whole entry): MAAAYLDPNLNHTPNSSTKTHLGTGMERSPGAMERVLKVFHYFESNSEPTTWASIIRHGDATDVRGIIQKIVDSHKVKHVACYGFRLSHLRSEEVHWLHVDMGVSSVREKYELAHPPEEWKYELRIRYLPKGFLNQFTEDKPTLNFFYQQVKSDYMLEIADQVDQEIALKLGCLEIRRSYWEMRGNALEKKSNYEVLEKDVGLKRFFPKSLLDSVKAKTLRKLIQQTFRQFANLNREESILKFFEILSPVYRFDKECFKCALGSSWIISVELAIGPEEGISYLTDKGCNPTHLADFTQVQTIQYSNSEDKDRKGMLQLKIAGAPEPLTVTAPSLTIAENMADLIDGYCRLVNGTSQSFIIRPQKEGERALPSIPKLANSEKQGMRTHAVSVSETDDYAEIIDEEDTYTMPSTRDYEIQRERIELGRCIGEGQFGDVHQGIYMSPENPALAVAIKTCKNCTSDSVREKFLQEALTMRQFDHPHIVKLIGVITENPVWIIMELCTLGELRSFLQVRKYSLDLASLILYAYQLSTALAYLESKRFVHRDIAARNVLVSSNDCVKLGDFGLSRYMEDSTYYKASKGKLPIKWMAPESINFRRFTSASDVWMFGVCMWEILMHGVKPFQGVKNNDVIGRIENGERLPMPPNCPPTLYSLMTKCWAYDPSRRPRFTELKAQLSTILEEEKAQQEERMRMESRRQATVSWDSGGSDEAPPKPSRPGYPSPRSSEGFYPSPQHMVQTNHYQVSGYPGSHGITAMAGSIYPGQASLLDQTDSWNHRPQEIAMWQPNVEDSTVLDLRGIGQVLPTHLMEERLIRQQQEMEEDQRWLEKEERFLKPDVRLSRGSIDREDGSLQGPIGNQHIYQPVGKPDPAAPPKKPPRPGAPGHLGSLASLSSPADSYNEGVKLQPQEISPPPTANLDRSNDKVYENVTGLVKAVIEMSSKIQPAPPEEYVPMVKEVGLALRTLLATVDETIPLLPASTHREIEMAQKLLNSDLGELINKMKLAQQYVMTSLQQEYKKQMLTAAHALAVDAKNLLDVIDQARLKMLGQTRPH

Turning to `CCOP(=O)(Cc1ccc(Nc2ncc(C(F)(F)F)c(Nc3ccc(N4CCN(C(C)=O)CC4)c4c3C(=O)N(C)C4)n2)cc1)OCC` [Example 199, Diethyl (4-{[4-{[7-(4-acetylpiperazin-1-yl)-2-methyl-3-oxo-2,3-dihydro-1H-isoindol-4-yl]amino}-5-(trifluoromethyl)pyrimidin-2-yl]amino}benzyl)phosphonate], the pIC50 on FAK [1] and on FAK [2] was above 6.00 in each case.

As to `CCOP(=O)(Cc1ccc(Nc2ncc(C(F)(F)F)c(Nc3ccc(N4CCN(C)CC4)c4c3C(=O)N(C)C4)n2)cc1)OCC` [Example 201, Diethyl (4-{[4-{[2-methyl-7-(4-methylpiperazin-1-yl)-3-oxo-2,3-dihydro-1H-isoindol-4-yl]amino}-5-(trifluoromethyl)pyrimidin-2-yl]amino}benzyl)phosphonate], the pIC50 at FAK [1] and at FAK [2] was above 6.00 throughout.

Take `CCOP(=O)(Cc1ccc(Nc2ncc(C(F)(F)F)c(Nc3cccc4[nH]cc(C)c(=O)c34)n2)cc1)OCC` [Example 203, Diethyl [4-({4-[(3-methyl-4-oxo-1,4-dihydroquinolin-5-yl)amino]-5-(trifluoromethyl)pyrimidin-2-yl}amino)benzyl]phosphonate]: the pIC50 against FAK [1] and on FAK [2] was above 6.00 in each case.

Consider `CCOc1ccc(Nc2nc(Nc3ccc(CP(=O)(OCC)OCC)cc3)ncc2C(F)(F)F)c2c1CN(C)C2=O` [Example 206, Diethyl [4-({4-[(7-ethoxy-2-methyl-3-oxo-2,3-dihydro-1H-isoindol-4-yl)amino]-5-(trifluoromethyl)pyrimidin-2-yl}amino)benzyl]phosphonate], for which the negative logarithm of the IC50 (pIC50) against FAK [1] and on FAK [2] was above 6.00 throughout.

With `CCOP(=O)(Cc1ccc(Nc2ncc(C(F)(F)F)c(Nc3ccc(OC(C)C)c4c3C(=O)N(C)C4)n2)cc1)OCC` [Example 207, Diethyl (4-{[4-{[2-methyl-3-oxo-7-(propan-2-yloxy)-2,3-dihydro-1H-isoindol-4-yl]amino}-5-(trifluoromethyl)pyrimidin-2-yl]amino}benzyl)phosphonate], the pIC50 against FAK [1] and at FAK [2] was above 6.00 throughout.

For `CCOP(=O)(Cc1ccc(Nc2ncc(C(F)(F)F)c(Nc3ccc(N4CCOCC4)c4c3C(=O)N(C)C4)n2)cc1)OCC` [Example 208, Diethyl (4-{[4-{[2-methyl-7-(morpholin-4-yl)-3-oxo-2,3-dihydro-1H-isoindol-4-yl]amino}-5-(trifluoromethyl)pyrimidin-2-yl]amino}benzyl)phosphonate], the pIC50 at FAK [1] and on FAK [2] was above 6.00 each time.

As for `CCOP(=O)(Cc1ccc(Nc2ncc(C(F)(F)F)c(Nc3ccc(OC)c4c3C(=O)N(C)C4)n2)c(OC)c1)OCC` [Example 209, Diethyl [3-methoxy-4-({4-[(7-methoxy-2-methyl-3-oxo-2,3-dihydro-1H-isoindol-4-yl)amino]-5-(trifluoromethyl)pyrimidin-2-yl}amino)benzyl]phosphonate], the pIC50 on FAK [1] and at FAK [2] was above 6.00 each time.

Regarding `COCCOP(=O)(Cc1ccc(Nc2ncc(C(F)(F)F)c(Nc3ccc([C@H]4CC[C@H](O)CC4)c4c3C(=O)N(C)C4)n2)c(OC)c1)OCCOC` [Example 217, Bis(2-methoxyethyl) (4-{[4-{[7-(trans-4-hydroxycyclohexyl)-2-methyl-3-oxo-2,3-dihydro-1H-isoindol-4-yl]amino}-5-(trifluoromethyl)pyrimidin-2-yl]amino}-3-methoxybenzyl)phosphonate], the pIC50 at FAK [1] and on FAK [2] was above 6.00 in each case.

Turning to `COCCOP(=O)(Cc1ccc(Nc2ncc(C(F)(F)F)c(Nc3cccc4c3C(=O)N(C)C4)n2)c(OC)c1)OCCOC` [Example 219, Bis(2-methoxyethyl) [3-methoxy-4-({4-[(2-methyl-3-oxo-2,3-dihydro-1H-isoindol-4-yl)amino]-5-(trifluoromethyl)pyrimidin-2-yl}amino)benzyl]phosphonate], the pIC50 on FAK [1] and at FAK [2] was above 6.00 in each case.

Consider `CNC(=O)c1ccccc1Nc1nc(Nc2ccc(CP(=O)(OCCOC)OCCOC)cc2OC)ncc1C(F)(F)F` [Example 221, Bis(2-methoxyethyl) (3-methoxy-4-{[4-{[2-(methylcarbamoyl)phenyl]amino}-5-(trifluoromethyl)pyrimidin-2-yl]amino}benzyl)phosphonate], for which the pIC50 against FAK [1] and at FAK [2] was above 6.00 each time.

For `CCOP(=O)(Cc1ccc(Nc2ncc(C(F)(F)F)c(Nc3ccc(N4CCN(C(C)=O)CC4)c4c3C(=O)N(C)C4)n2)c(OC)c1)OCC` [Example 223, Diethyl (4-{[4-{[7-(4-acetylpiperazin-1-yl)-2-methyl-3-oxo-2,3-dihydro-1H-isoindol-4-yl]amino}-5-(trifluoromethyl)pyrimidin-2-yl]amino}-3-methoxybenzyl)phosphonate], the pIC50 at FAK [1] and at FAK [2] was above 6.00 throughout.

Turning to `CCOP(=O)(Cc1ccc(Nc2ncc(C(F)(F)F)c(Nc3ccc(N4CC(O)C4)c4c3C(=O)N(C)C4)n2)c(OC)c1)OCC` [Example 229, Diethyl (4-{[4-{[7-(3-hydroxyazetidin-1-yl)-2-methyl-3-oxo-2,3-dihydro-1H-isoindol-4-yl]amino}-5-(trifluoromethyl)pyrimidin-2-yl]amino}-3-methoxybenzyl)phosphonate], the pIC50 on FAK [1] and at FAK [2] was above 6.00 throughout.

For the molecule `CCOP(=O)(Cc1ccc(Nc2ncc(C(F)(F)F)c(Nc3ccc([C@H]4CC[C@H](O)CC4)nc3C(=O)NC)n2)c(OC)c1)OCC` [Example 232, Diethyl (4-{[4-{[6-(trans-4-hydroxycyclohexyl)-2-(methylcarbamoyl)pyridin-3-yl]amino}-5-(trifluoromethyl)pyrimidin-2-yl]amino}-3-methoxybenzyl)phosphonate], the pIC50 against FAK [1] and on FAK [2] was above 6.00 in each case.

On to `CCOP(=O)(Cc1ccc(Nc2ncc(C(F)(F)F)c(Nc3ccc(C4CCC(N(C)C)CC4)c4c3C(=O)N(C)C4)n2)c(OC)c1)OCC` (centres unmarked) [Example 233, Diethyl (4-{[4-({7-[4-(dimethylamino)cyclohexyl]-2-methyl-3-oxo-2,3-dihydro-1H-isoindol-4-yl}amino)-5-(trifluoromethyl)pyrimidin-2-yl]amino}-3-methoxybenzyl)phosphonate], for which the pIC50 against FAK [1] and on FAK [2] was above 6.00 in each case.

On to `CCOP(=O)(Cc1ccc(Nc2ncc(C(F)(F)F)c(Nc3ccc([C@H]4CC[C@H](N5CCN(C(C)=O)CC5)CC4)c4c3C(=O)N(C)C4)n2)c(OC)c1)OCC` [Example 238, diethyl (4-{[4-({7-[trans-4-(4-acetylpiperazin-1-yl)cyclohexyl]-2-methyl-3-oxo-2,3-dihydro-1H-isoindol-4-yl}amino)-5-(trifluoromethyl)pyrimidin-2-yl]amino}-3-methoxybenzyl)phosphonate], for which the pIC50 at FAK [1] and at FAK [2] was above 6.00 in each case.

Take `CCOP(=O)(Cc1ccc(Nc2ncc(C(F)(F)F)c(Nc3ccc(C4CCC(N5CCCC5)CC4)c4c3C(=O)N(C)C4)n2)c(OC)c1)OCC` (centres unmarked) [Example 242]: the pIC50 against FAK [1] and on FAK [2] was above 6.00 in each case.

On to `CCOP(=O)(Cc1ccc(Nc2ncc(C(F)(F)F)c(Nc3ccc([C@@H]4C[C@@H](O)[C@@H](O)C4)c4c3C(=O)N(C)C4)n2)c(OC)c1)OCC` [Example 243, Diethyl (4-{[4-({7-[-3,4-dihydroxycyclopentyl]-2-methyl-3-oxo-2,3-dihydro-1H-isoindol-4-yl}amino)-5-(trifluoromethyl)pyrimidin-2-yl]amino}-3-methoxybenzyl) phosphonate], for which the negative-log IC50 (pIC50) at FAK [1] and on FAK [2] was above 6.00 in each case.

As for `CCOc1cc(CP(=O)(OCC)OCC)ccc1Nc1ncc(C(F)(F)F)c(Nc2ccc([C@H]3CC[C@@H](C(=O)OCC)CC3)c3c2C(=O)N(C)C3)n1` [Example 244, Ethyl cis-4-(7-{[2-({4-[(diethoxyphosphoryl)methyl]-2-ethoxyphenyl}amino)-5-(trifluoromethyl)pyrimidin-4-yl]amino}-2-methyl-1-oxo-2,3-dihydro-1H-isoindol-4-yl)cyclohexanecarboxylate], the negative-log IC50 (pIC50) against FAK [1] is above 6.00; on FAK [2], 5.00 to 6.00.

For the molecule `CCOc1cc(CP(=O)(OCC)OCC)ccc1Nc1ncc(C(F)(F)F)c(Nc2ccc([C@H]3CC[C@H](C(=O)OCC)CC3)c3c2C(=O)N(C)C3)n1` [Example 245, Ethyl trans-4-(7-{[2-({4-[(diethoxyphosphoryl)methyl]-2-ethoxyphenyl}amino)-5-(trifluoromethyl)pyrimidin-4-yl]amino}-2-methyl-1-oxo-2,3-dihydro-1H-isoindol-4-yl)cyclohexanecarboxylate], the values for the negative-log IC50 (pIC50) against FAK [1] and at FAK [2] were above 6.00 and 5.00 to 6.00, respectively.

Take `CCOP(=O)(Cc1ccc(Nc2ncc(C(F)(F)F)c(Nc3ccc(C4CCNCC4)c4c3C(=O)N(C)C4)n2)cc1)OCC` [Example 247, Diethyl (4-{[4-{[2-methyl-3-oxo-7-(piperidin-4-yl)-2,3-dihydro-1H-isoindol-4-yl]amino}-5-(trifluoromethyl)pyrimidin-2-yl]amino}benzyl)phosphonate]: the pIC50 at FAK [1] and at FAK [2] was above 6.00 throughout.

Turning to `CCOP(=O)(Cc1ccc(Nc2ncc(Cl)c(Nc3ccc([C@H]4CC[C@H](O)CC4)c4c3C(=O)N(C)C4)n2)c(OC)c1)OCC` [Example 250, Diethyl {4-[(5-chloro-4-{[7-(trans-4-hydroxycyclohexyl)-2-methyl-3-oxo-2,3-dihydro-1H-isoindol-4-yl]amino}pyrimidin-2-yl)amino]-3-methoxybenzyl}phosphonate], the negative logarithm of the IC50 (pIC50) against FAK [1] and at FAK [2] was above 6.00 each time.

Take `CCOP(=O)(Cc1ccc(Nc2ncc(C(F)(F)F)c(Nc3ccc(N4CCN(CC(=O)O)CC4)c4c3C(=O)N(C)C4)n2)cc1)OCC` [Example 251, [4-(7-{[2-({4-[(Diethoxyphosphoryl)methyl]phenyl}amino)-5-(trifluoromethyl)pyrimidin-4-yl]amino}-2-methyl-1-oxo-2,3-dihydro-1H-isoindol-4-yl)piperazin-1-yl]acetic acid]: the pIC50 against FAK [1] and on FAK [2] was above 6.00 in each case.

The values above are taken from patent US9096624B2 (OSI Pharmaceuticals, LLC, priority 2009, dated 2015).
